The term Ki denotes a dissociation constant, usually derived from enzyme kinetics or from competition with a known ligand.

Assay [1] has as its target T1, α4β2 subtype of nicotinic acetylcholine receptors (Rattus norvegicus, UniProt P09483+P12390).
T1 construct: examined using rat brain membrane obtained from whole homogenized brain; from tissue; host or cells: whole brain membranes of Fischer-344 male rats
The assay is described as follows: Binding assay at α4β2 subtype of nicotinic acetylcholine receptors ([3H]-cytisine, rat brain membrane). Conditions: for control % of [3H]-cytisine binding at 1 μM of test compound: 1 μM test compound; for control % of [3H]-cytisine binding at 1 μM of test compound / control % of [3H]-cytisine binding at 10 μM of test compound: % of control binding remaining; for control % of [3H]-cytisine binding at 10 μM of test compound: 10 μM test compound. An excerpt:
(§1) The methods for evaluating the binding capabilities of the compounds against nicotinic acetylcholine receptors are different by subtypes of receptors. The binding capabilities of the compounds at α4β2 nicotinic acetylcholine receptors are examined using rat brain membrane obtained from whole homogenized brain, and determining the inhibiting rate of the compounds against [^3H]-cytisine binding to said brain membrane. Furthermore, the binding capabilities of the compounds at α1β1γδ nicotinic acetylcholine receptors are examined using homogenized rat muscle, and determining the inhibiting rate of the compounds against [^3H]-α-bungarotoxin binding to said muscle membrane.
Binding Assays at α4β2 Subtype of Nicotinic Acetylcholine Receptors
The affinity of the compounds of the present invention to α4β2 subunit of nicotinic acetylcholine receptors was performed by the following method, which was modified method described by Pabreza L. A., Dhawan S. & Kellar K. J., Mol. Pharm., 39, 9-12 (1990), and by Anderson D. J. & Arneric S. P., Eur. J. Pharm., 253, 261-267 (1994).
(1) Preparation of Rat Brain Membrane Containing α4β2 subtype of Nicotinic Acetylcholine Receptors
Fischer-344 strain male rats (body weight: 200-240 g; 9 weeks old) obtained from Charles River Japan were used. Rats were housed in the breeding cage controlled of the room temperature at 23±1° C., and the humidity of 55±5% for 1 to 4 weeks. Rats (3 to 4 rats per a cage) were housed with lights on for 12 hours daily (from 7:00 to 19:00), and allowed free access to food and water.
Preparation of rat brain membrane containing α4β2 subtype of nicotinic acetylcholine receptors was performed as follow. That is, rat brains were isolated just after sacrificed by decapitation, washed with ice-cooled saline solution and then frozen at −80° C. with liquid nitrogen and stored till using. After thawing the frozen brain, the brain was homogenized in 10 volumes of buffer solution (50 mM of Tris-HCl, 120 mM of NaCl, 5 mM of KCl, 1 mM of MgCl2, 2mM of CaCl2; pH 7.4; 4° C.) using homogenizer (HG30, Hitachi Kohki Ltd.) for 30 seconds, and the homogenate were centrifuged under 1,000×G for 10 minutes at 4° C. The resulting supernatant was separated and the pellet was homogenized again with half volume of aforementioned prior buffer solution and centrifuged under the same conditions. Combined supernatant was further centrifuged under 40,000×G for 20 minutes at 4° C. The pellet was suspended in buffer solution and used for binding assays at receptors.
(2) Experiments of α4β2 Subtype of Nicotinic Acetylcholine Receptors Binding
Suspensions of membrane pellets containing 400-600 μg of protein were added to test tubes containing test compounds and [^3H]-cytisine (2 nM) in a final volume of 200 μl and incubated for 75 minutes in ice-cooled bath. The samples were isolated by vacuum filtration onto Whatman GF/B filters, which were prerinsed with 0.5% polyethylenimine just prior to sample filtration, using Brandel multi manifold cell harvester. The filters were rapidly washed with buffer solution (3×1 ml). The filters were counted in 3 ml of clearsol I (Nacalai Tesque Inc.).
The analyses of the experimental results were conducted by using the Accufit Competition Program (Beckman Ltd.).

For assay [2], the target named is T2, α1β1γδ subtype of nicotinic acetylcholine receptors (Rattus norvegicus, UniProt P25108).
T2 construct: The centrifugation at 100,000×G for 60 minutes at 4° C. yielded the rat muscle extract as supernatant
T2 sequence (P25108 21-457): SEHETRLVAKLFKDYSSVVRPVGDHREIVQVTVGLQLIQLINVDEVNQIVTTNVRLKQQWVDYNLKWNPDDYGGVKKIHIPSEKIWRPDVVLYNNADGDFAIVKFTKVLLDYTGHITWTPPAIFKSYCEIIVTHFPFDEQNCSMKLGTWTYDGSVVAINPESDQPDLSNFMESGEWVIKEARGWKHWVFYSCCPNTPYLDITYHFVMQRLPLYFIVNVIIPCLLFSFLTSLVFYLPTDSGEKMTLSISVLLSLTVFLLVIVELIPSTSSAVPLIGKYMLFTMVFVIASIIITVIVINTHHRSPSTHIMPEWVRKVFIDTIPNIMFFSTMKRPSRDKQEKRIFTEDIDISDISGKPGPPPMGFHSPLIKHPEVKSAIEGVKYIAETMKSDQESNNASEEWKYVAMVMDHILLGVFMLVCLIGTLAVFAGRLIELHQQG
T2 sequence (P25109 24-501, further chain): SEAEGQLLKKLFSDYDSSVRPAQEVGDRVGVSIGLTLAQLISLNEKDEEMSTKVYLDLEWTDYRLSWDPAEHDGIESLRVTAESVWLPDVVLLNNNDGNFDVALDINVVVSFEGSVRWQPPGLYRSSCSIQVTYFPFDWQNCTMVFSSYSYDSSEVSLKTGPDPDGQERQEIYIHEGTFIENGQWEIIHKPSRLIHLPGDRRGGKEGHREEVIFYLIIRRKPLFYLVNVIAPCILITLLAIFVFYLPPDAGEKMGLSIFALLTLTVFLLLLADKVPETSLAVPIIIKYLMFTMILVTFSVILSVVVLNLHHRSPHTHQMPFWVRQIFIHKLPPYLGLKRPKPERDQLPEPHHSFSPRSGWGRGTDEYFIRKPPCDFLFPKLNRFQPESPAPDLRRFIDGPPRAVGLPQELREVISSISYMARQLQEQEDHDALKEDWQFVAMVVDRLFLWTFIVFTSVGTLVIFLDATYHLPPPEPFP
T2 sequence (P25110 22-517, further chain): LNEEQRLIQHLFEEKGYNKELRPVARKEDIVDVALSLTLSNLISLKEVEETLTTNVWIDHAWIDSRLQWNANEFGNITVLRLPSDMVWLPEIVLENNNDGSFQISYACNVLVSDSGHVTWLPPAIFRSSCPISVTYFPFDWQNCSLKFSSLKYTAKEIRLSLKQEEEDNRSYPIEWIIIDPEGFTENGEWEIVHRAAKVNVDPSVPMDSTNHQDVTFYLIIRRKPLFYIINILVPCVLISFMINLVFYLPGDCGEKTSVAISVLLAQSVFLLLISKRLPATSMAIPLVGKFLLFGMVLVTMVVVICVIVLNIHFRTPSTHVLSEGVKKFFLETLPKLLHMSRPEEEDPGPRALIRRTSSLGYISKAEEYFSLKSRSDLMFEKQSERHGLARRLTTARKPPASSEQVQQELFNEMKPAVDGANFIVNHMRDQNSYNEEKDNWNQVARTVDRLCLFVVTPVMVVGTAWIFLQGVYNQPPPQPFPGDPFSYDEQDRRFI
Description: biochemical. The class given is binding. Conditions: % of control binding remaining; for control % of [3H]-α-Bgt binding at 100 μM of test compound: 100 μM test compound; for control % of [3H]-α-Bgt binding at 1,000 μM of test compound: 1,000 μM test compound.
From the text: as §1
Binding Assays at α1β1γδ Subtype of Nicotinic Acetylcholine Receptors
The affinity of the compounds of the present invention to α1β1γδ subtype of nicotinic acetylcholine receptors was measured by the following method, which was modified method described by Garcha H. S., Thomas P., Spivak C.
(1) Preparation of Rat Skeletal Muscles Containing α1β1γδ Subtype of Nicotinic Acetylcholine Receptors
The substantially same animals described in the Biological Experiment 1 were used.
The isolation of α1β1γδ subtype of nicotinic acetylcholine receptors was performed as follow. That is, rat posterior skeletal muscles were isolated just after sacrificed by decapitation, washed with ice-cooled saline solution and then frozen at −80° C. with liquid nitrogen and stored till using. After thawing the frozen muscles, tissue was homogenized (40% w/v) with buffer solution [2.5 mM of sodium phosphate buffer (pH:7.2), 90 mM of NaCl, 2 mM of KCl, 1 mM of EDTA, 2 mM of benzamidine, 0.1 mM of benzethonium chloride, 0.1 mM of PMSF, 0.01% of sodium azide] in Waring blender [Waring blender 34BL97; WARING PRODUCTS DIVISION DYNAMICS CORPORATION OF AMERICA) for 60 seconds. The homogenate were centrifuged under 20,000×G for 60 minutes at 4° C. The supernatant was separated and the resulting pellet was added to the same buffer (1.5 ml/g wet weight), and homogenized under the same conditions. Triton X100 (2% w/v) was added and the mixture was stirred for 3 hours at 4° C. The centrifugation at 100,000×G for 60 minutes at 4° C. yielded the rat muscle extract as supernatant. This was stored at 4° C. for up to 4 weeks, and used for binding assays at receptors.
(2) Experiments of α1β1γδ Subtype of Nicotinic Acetylcholine Receptors Binding
Receptors binding experiments were performed as follow. That is, the extract of rat muscle containing 600-900 μg of protein was added to test tubes containing test compounds and incubated for 15 minutes at 37° C. Then, to this mixture was added 1 nM of [^3H]-α-bungarotoxin (α-Bgt) and further incubated for 2 hours. The samples were isolated by vacuum filtration onto Whatman GF/B filters, which were prerinsed with 0.5% polyethylenimine just prior to sample filtration, using Brandel multi manifold cell harvester. The filters were rapidly rinsed with washing solution (10 mM of KH2PO4, 150 mM of NaCl, pH 7.2, room temperature) (5×1 ml). The filters were counted in 3 ml of clearsol I (Nacalai Tesque Inc.). The determination of nonspecific binding was incubated in the presence of 1 μM α-Bgt. […] In the receptor binding experiments, said buffer solution was added for adjusting the final concentration of BSA to be 0.05%.
The analyses of the experimental results were conducted by as described in the Biological Experiment 1.

T1 sequence (P09483 31-630): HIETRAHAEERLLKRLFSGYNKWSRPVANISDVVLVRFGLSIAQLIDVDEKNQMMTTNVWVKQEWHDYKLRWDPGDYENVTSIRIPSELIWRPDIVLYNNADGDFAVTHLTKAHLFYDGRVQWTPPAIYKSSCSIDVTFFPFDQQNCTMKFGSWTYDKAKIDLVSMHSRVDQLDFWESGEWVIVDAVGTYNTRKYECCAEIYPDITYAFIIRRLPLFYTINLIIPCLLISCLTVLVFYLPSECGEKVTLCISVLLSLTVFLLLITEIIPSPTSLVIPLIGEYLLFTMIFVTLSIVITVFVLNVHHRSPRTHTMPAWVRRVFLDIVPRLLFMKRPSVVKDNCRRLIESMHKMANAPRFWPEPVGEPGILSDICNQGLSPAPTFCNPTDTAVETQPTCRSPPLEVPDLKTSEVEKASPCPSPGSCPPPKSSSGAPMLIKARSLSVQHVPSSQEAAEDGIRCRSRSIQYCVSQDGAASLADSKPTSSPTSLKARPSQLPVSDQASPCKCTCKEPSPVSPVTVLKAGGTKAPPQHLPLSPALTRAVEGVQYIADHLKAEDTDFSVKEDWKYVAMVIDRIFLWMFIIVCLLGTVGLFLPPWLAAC
T1 sequence (P12390 25-500): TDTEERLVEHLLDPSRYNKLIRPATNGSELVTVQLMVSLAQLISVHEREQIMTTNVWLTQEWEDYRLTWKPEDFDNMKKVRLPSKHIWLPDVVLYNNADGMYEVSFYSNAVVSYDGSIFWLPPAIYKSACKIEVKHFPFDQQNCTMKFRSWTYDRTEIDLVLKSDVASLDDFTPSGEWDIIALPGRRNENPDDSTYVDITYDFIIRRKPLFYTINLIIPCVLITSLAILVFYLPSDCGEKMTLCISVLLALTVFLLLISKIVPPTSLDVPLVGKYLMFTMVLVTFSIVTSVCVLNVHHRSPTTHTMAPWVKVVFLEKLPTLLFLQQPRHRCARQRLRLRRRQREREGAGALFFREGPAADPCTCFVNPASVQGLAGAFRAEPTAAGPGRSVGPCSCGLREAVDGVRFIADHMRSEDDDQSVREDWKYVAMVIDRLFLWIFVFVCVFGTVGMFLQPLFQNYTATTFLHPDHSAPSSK

For the molecule `Clc1cc/c(=N\Cc2ccc(Cl)nc2)n(Cc2ccc(Cl)nc2)c1` [Compound 6, 5-chloro-1-(6-chloro-3-pyridyl)methyl-2-[(6-chloro-3-pyridyl)methyl]imino-1,2-dihydropyridine], in assay [1], the “control % of [3H]-cytisine binding at 1 μM of test compound” value (“control % … at 1 μM of test compound” below) is reported as 94% and the “control % of [3H]-cytisine binding at 10 μM of test compound” value (from here on “control % … at 10 μM of test compound”) is 45%.

`Clc1ccc(C/N=C2\NCCCN2Cc2ccc(Cl)nc2)cn1` [Compound 3, 1-(6-chloro-3-pyridyl)methyl-[(6-chloro-3-pyridyl)methyl]imino-1,2,3,4,5,6-hexahydropyrimidine]: in assay [2], the “control % of [3H]-α-Bgt binding at 100 μM of test compound” value (“control % … at 100 μM of test compound” below) came out at 77% and the “control % of [3H]-α-Bgt binding at 1,000 μM of test compound” value (shortened to “control % … at 1,000 μM of test compound”) was found to be 76%. For the same molecule, in assay [1], the affinity, expressed as Ki, was 739 nM.

In the case of `N=C1N(Cc2ccc(Cl)nc2)CCCN1Cc1ccc(Cl)nc1` [Compound 4, 1,3-bis[(6-chloro-3-pyridyl)methyl]-2-imino-1,2,3,4,5,6-hexahydropyrimidine], in assay [2], the “control % … at 100 μM of test compound” value is given as 49% and the “control % … at 1,000 μM of test compound” value is on record as 30%. Moreover, the affinity in assay [1], expressed as Ki, was 475 nM.

Take `N=c1n(Cc2ccc(Cl)nc2)ccn1Cc1ccc(Cl)nc1` [Compound 10, 1,3-bis[(6-chloro-3-pyridyl)methyl]-2-imino-2,3-dihydroimidazole]: in assay [1], the “control % … at 1 μM of test compound” value is given as 89% and the “control % … at 10 μM of test compound” value was found to be 46%.

As for `Clc1ccc(C/N=c2\ncccn2Cc2ccc(Cl)nc2)cn1` [Compound 5, 1-(6-chloro-3-pyridyl)methyl-2-[(6-chloro-3-pyridyl)methyl]imino-1,2-dihydropyrimidine], in assay [1], the “control % … at 1 μM of test compound” value is recorded as 92% and the “control % … at 10 μM of test compound” value is 23%.

As for `Cc1cs/c(=N\Cc2ccc(Cl)nc2)n1Cc1ccc(Cl)nc1` [Compound 9, 3-(6-Chloro-3-pyridyl)methyl-2-[(6-chloro-3-pyridyl)methyl]imino-4-methyl-2,3-dihydrothiazole], in assay [2], the “control % … at 100 μM of test compound” value was 78% and the “control % … at 1,000 μM of test compound” value is given as 40%. This molecule registered an inhibitory constant (Ki) in assay [1] of 110 nM.

Regarding `C/N=C1\SCCN1Cc1ccc(Cl)nc1` [Compound 11, 3-(6-chloro-3-pyridyl)methyl-2-methylimino-thiazolidine], in assay [1], the “control % … at 1 μM of test compound” value was found to be 93% and the “control % … at 10 μM of test compound” value was found to be 18%.

As to `Clc1ccc(CN2CCS/C2=N\Cc2ccccc2)cn1` [Compound 14, 2-Benzylimino-3-(6-chloro-3-pyridyl)methylthiazolidine], in assay [2], the “control % … at 100 μM of test compound” value is listed as 64% and the “control % … at 1,000 μM of test compound” value came out at 20%. This molecule also returned a Ki in assay [1] of 123 nM.

On to `CC1CCC/C(=N\Cc2ccc(Cl)nc2)N1Cc1ccc(Cl)nc1` (stereo not shown) [Compound 7, 1-(6-chloro-3-pyridyl)methyl-2-[(6-chloro-3-pyridyl)methyl]imino-6-methylpiperidine], for which, in assay [2], the “control % … at 100 μM of test compound” value is given as 85% and the “control % … at 1,000 μM of test compound” value is recorded as 52%. Also, in assay [1], the “control % … at 1 μM of test compound” value is recorded as 85% and the “control % … at 10 μM of test compound” value is 75%.

As to `Clc1ccc(Cn2ccs/c2=N\c2ccccc2)cn1` [Compound 12, 3-(6-Chloro-3-pyridyl)methyl-2-phenylimino-2,3-dihydrothiazole], in assay [2], the “control % … at 100 μM of test compound” value is given as 86% and the “control % … at 1,000 μM of test compound” value amounted to 48%. In assay [1], the “control % … at 1 μM of test compound” value was determined as 109% and the “control % … at 10 μM of test compound” value came out at 84%.

These data come from US6900202B2, “Di-substituted imineheterocyclic compounds” (priority 2000, dated 2005).
